US9597407B2, “Targeted antimicrobial moieties” (C3 Jian, Inc., priority 2009, dated 2017)
Ends that are not written are not given here.

Legend:
microorganisms [1] = assay: Peptide activities: binding, antimicrobial, growth or phenotype altering (Table 8)
Description: In certain embodiments, peptides described herein can have multiple activities. Thus for example, a peptide can have both binding/targeting activity and antimicrobial activity. Such peptides can be used, e.g., in a chimeric construct, for any or all of these properties. Thus, for example, a peptide designated “B” in Table 8 can be used as a targeting peptide. If it is also designated G or M it can also be used for antimicrobial activity.

microorganisms [2] = assay: Morphology, biofilm and growth disruption by peptides (Table 5); format: cell-based; parameters: key: A: Peptide aggregates; B: Less hyphal formation; Clumps; Diffuse clumps and small polyps; F: Diffuse growth; H: Thin; I: Growth inhibition; Microcolony formation; Rippled; Small polyps; Thick; W: Halo formation on top, microlonies on bottom
Description: In certain embodiments peptides that induce alterations in phenotype or other biological activities can also be used as antimicrobial effector moieties.

Substance: PF-356 (VSIKIGAIVIGMIGLMELLTE; Peptide with targeting and/or antimicrobial activity)
- Activities (microorganisms [1]): G B
- Organism, effect (microorganisms [2]; C. jejuni): C. jejuni (D)
- Organism, effect (microorganisms [2]; E. faecalis): E. faecalis (R)
- Organism, effect (microorganisms [2]; MRSA): MRSA (C)
- Organism, effect (microorganisms [2]; P. aeruginosa): P. aeruginosa (A)
- Organism, effect (microorganisms [2]; S. epidermidis): S. epidermidis (S)
- Organism, effect (microorganisms [2]; S. pneumoniae): S. pneumoniae (R)

Substance: PF-375 (MDSAKAQTMRTDWLAVSCLVASAYLRSMLA; Peptide with targeting and/or antimicrobial activity)
- Activities (microorganisms [1]): G B
- Organism, effect (microorganisms [2]; E. coli): E. coli (C)
- Organism, effect (microorganisms [2]; E. faecalis): E. faecalis (C)
- Organism, effect (microorganisms [2]; MRSA): MRSA (C)
- Organism, effect (microorganisms [2]; S. epidermidis): S. epidermidis (C)

Substance: PF-451 (MVNYIIGSYMLYREQNNNEALRKFDITLAM; Peptide with targeting and/or antimicrobial activity)
- Activities (microorganisms [1]): G B
- Organism, effect (morphology, biofilm and growth disruption) (microorganisms [2]; E. coli): E. coli (R)
- Organism, effect (morphology, biofilm and growth disruption) (microorganisms [2]; E. faecalis): E. faecalis (C)
- Organism, effect (morphology, biofilm and growth disruption) (microorganisms [2]; MRSA): MRSA (C)
- Organism, effect (morphology, biofilm and growth disruption) (microorganisms [2]; S. epidermidis): S. epidermidis (C)
- Organism, effect (morphology, biofilm and growth disruption) (microorganisms [2]; S. pneumoniae): S. pneumoniae (C)

Substance: PF-030 (MTCHQAPTTTHQSNMA; Peptide with targeting and/or antimicrobial activity)
- Activities (microorganisms [1]): G B
- Organism, effect (microorganisms [2]; C. jeikeium): C. jeikeium (C)
- Organism, effect (microorganisms [2]; M. luteus): M. luteus (C)
- Organism, effect (microorganisms [2]; MRSA): MRSA (R)
- Organism, effect (microorganisms [2]; S. epidermidis): S. epidermidis (D)

Substance: PF-526 (VLLLFIFQPFQKQLL-NH2)
- Activities (microorganisms [1]): G B
- Organism, effect (morphology, biofilm and growth disruption) (microorganisms [2]; C. albicans): C. albicans (C)
- Organism, effect (morphology, biofilm and growth disruption) (microorganisms [2]; E. coli): E. coli (R)
- Organism, effect (morphology, biofilm and growth disruption) (microorganisms [2]; MRSA): MRSA (C)
- Organism, effect (morphology, biofilm and growth disruption) (microorganisms [2]; S. epidermidis): S. epidermidis (C)
- Organism, effect (morphology, biofilm and growth disruption) (microorganisms [2]; S. pneumoniae): S. pneumoniae (R)

Substance: PF-354 (FTFSKCRASNGRGFGTLWL; Peptide with targeting and/or antimicrobial activity)
- Activities (microorganisms [1]): G B
- Organism, effect (microorganisms [2]; MRSA): MRSA (H)

Substance: PF-543 (NILFGIIGFVVAMTAAVIVTAISIAK; Peptide with targeting and/or antimicrobial activity)
- Activities (microorganisms [1]): G B
- Organism, effect (morphology, biofilm and growth disruption) (microorganisms [2]; E. coli): E. coli (C)
- Organism, effect (morphology, biofilm and growth disruption) (microorganisms [2]; M. luteus): M. luteus (C)
- Organism, effect (morphology, biofilm and growth disruption) (microorganisms [2]; MRSA): MRSA (D)
- Organism, effect (morphology, biofilm and growth disruption) (microorganisms [2]; S. epidermidis): S. epidermidis (D)
- Organism, effect (morphology, biofilm and growth disruption) (microorganisms [2]; S. mutans): S. mutans (S)
- Organism, effect (morphology, biofilm and growth disruption) (microorganisms [2]; S. pneumoniae): S. pneumoniae (D)

Substance: PF-479 (AYILKRREEKNK; Peptide with targeting and/or antimicrobial activity)
- Activities (microorganisms [1]): G B
- Organism, effect (morphology, biofilm and growth disruption) (microorganisms [2]; S. pneumoniae): S. pneumoniae (C)

Substance: PF-537 (LANDYYKKTKKSW; Peptide with targeting and/or antimicrobial activity)
- Activities (microorganisms [1]): G B
- Organism, effect (morphology, biofilm and growth disruption) (microorganisms [2]; S. pneumoniae): S. pneumoniae (C)

Substance: PF-357 (MLTIIIGFIFWTMTLMLGYLIGEREGRKHE; Peptide with targeting and/or antimicrobial activity)
- Activities (microorganisms [1]): G B
- Organism, effect (microorganisms [2]; M. luteus): M. luteus (C)
- Organism, effect (microorganisms [2]; MRSA): MRSA (M)
- Organism, effect (microorganisms [2]; S. epidermidis): S. epidermidis (M)
- Organism, effect (microorganisms [2]; S. pneumoniae): S. pneumoniae (M)

Substance: PF-376 (MTVFEALMLAIAFATLIVKISNKNDKK; Peptide with targeting and/or antimicrobial activity)
- Activities (microorganisms [1]): G B
- Organism, effect (microorganisms [2]; E. coli): E. coli (C)
- Organism, effect (microorganisms [2]; E. faecalis): E. faecalis (C)
- Organism, effect (microorganisms [2]; MRSA): MRSA (C)
- Organism, effect (microorganisms [2]; S. epidermidis): S. epidermidis (C)

Substance: PF-465 (KPVGKALEEIADGKIEPVVPKEYLG; Peptide with targeting and/or antimicrobial activity)
- Activities (microorganisms [1]): G B
- Organism, effect (morphology, biofilm and growth disruption) (microorganisms [2]; S. pneumoniae): S. pneumoniae (H)

Substance: PF-374 (HLFFVKGMFILCQKNQINDE; Peptide with targeting and/or antimicrobial activity)
- Activities (microorganisms [1]): G B
- Organism, effect (microorganisms [2]; E. coli): E. coli (C)
- Organism, effect (microorganisms [2]; E. faecalis): E. faecalis (C)
- Organism, effect (microorganisms [2]; MRSA): MRSA (M)
- Organism, effect (microorganisms [2]; S. epidermidis): S. epidermidis (C)

Substance: PF-475 (MREKVRFTQAFKLFWTNYFNFKGRSRRSEY; Peptide with targeting and/or antimicrobial activity)
- Activities (microorganisms [1]): G B
- Organism, effect (morphology, biofilm and growth disruption) (microorganisms [2]; C. albicans): C. albicans (B)
- Organism, effect (morphology, biofilm and growth disruption) (microorganisms [2]; C. jejuni): C. jejuni (R)
- Organism, effect (morphology, biofilm and growth disruption) (microorganisms [2]; E. faecalis): E. faecalis (R)
- Organism, effect (morphology, biofilm and growth disruption) (microorganisms [2]; MRSA): MRSA (S)
- Organism, effect (morphology, biofilm and growth disruption) (microorganisms [2]; S. epidermidis): S. epidermidis (M)
- Organism, effect (morphology, biofilm and growth disruption) (microorganisms [2]; S. pneumoniae): S. pneumoniae (R)

Substance: PF-355 (WIAIGLLLYFSLKNQ; Peptide with targeting and/or antimicrobial activity)
- Activities (microorganisms [1]): G B
- Organism, effect (microorganisms [2]; C. jejuni): C. jejuni (D)
- Organism, effect (microorganisms [2]; E. coli): E. coli (C)
- Organism, effect (microorganisms [2]; E. faecalis): E. faecalis (D)
- Organism, effect (microorganisms [2]; MRSA): MRSA (A)
- Organism, effect (microorganisms [2]; P. aeruginosa): P. aeruginosa (A)
- Organism, effect (microorganisms [2]; S. epidermidis): S. epidermidis (C)
- Organism, effect (microorganisms [2]; S. pneumoniae): S. pneumoniae (D)

Substance: PF-471 (MVGKIRGVTPRNDLLNANITGQLNLNYRLI; Peptide with targeting and/or antimicrobial activity)
- Activities (microorganisms [1]): G B
- Organism, effect (morphology, biofilm and growth disruption) (microorganisms [2]; C. jejuni): C. jejuni (D)
- Organism, effect (morphology, biofilm and growth disruption) (microorganisms [2]; E. coli): E. coli (C)
- Organism, effect (morphology, biofilm and growth disruption) (microorganisms [2]; E. faecalis): E. faecalis (C)
- Organism, effect (morphology, biofilm and growth disruption) (microorganisms [2]; MRSA): MRSA (D)
- Organism, effect (morphology, biofilm and growth disruption) (microorganisms [2]; P. aeruginosa): P. aeruginosa (A)
- Organism, effect (morphology, biofilm and growth disruption) (microorganisms [2]; S. epidermidis): S. epidermidis (C)
- Organism, effect (morphology, biofilm and growth disruption) (microorganisms [2]; S. pneumoniae): S. pneumoniae (D)

Substance: PF-544 (FGEKQMRSWWKVHWFHP; Peptide with targeting and/or antimicrobial activity)
- Activities (microorganisms [1]): G B
- Organism, effect (morphology, biofilm and growth disruption) (microorganisms [2]; E. faecalis): E. faecalis (R)
- Organism, effect (morphology, biofilm and growth disruption) (microorganisms [2]; MRSA): MRSA (D)
- Organism, effect (morphology, biofilm and growth disruption) (microorganisms [2]; S. epidermidis): S. epidermidis (D)
- Organism, effect (morphology, biofilm and growth disruption) (microorganisms [2]; S. pneumoniae): S. pneumoniae (M)

Substance: PF-379 (VFVVLFIIYLASKLLTKLFPIKK; Peptide with targeting and/or antimicrobial activity)
- Activities (microorganisms [1]): G B
- Organism, effect (microorganisms [2]; E. coli): E. coli (C)
- Organism, effect (microorganisms [2]; E. faecalis): E. faecalis (C)
- Organism, effect (microorganisms [2]; MRSA): MRSA (C)
- Organism, effect (microorganisms [2]; S. epidermidis): S. epidermidis (C)

Substance: PF-562 (TPEQWLERSTVVVTGLLNRK; Peptide with targeting and/or antimicrobial activity)
- Activities (microorganisms [1]): G B
- Organism, effect (morphology, biofilm and growth disruption) (microorganisms [2]; C. jejuni): C. jejuni (R)
- Organism, effect (morphology, biofilm and growth disruption) (microorganisms [2]; M. luteus): M. luteus (R)
- Organism, effect (morphology, biofilm and growth disruption) (microorganisms [2]; MRSA): MRSA (M)
- Organism, effect (morphology, biofilm and growth disruption) (microorganisms [2]; S. epidermidis): S. epidermidis (A)
- Organism, effect (morphology, biofilm and growth disruption) (microorganisms [2]; S. pneumoniae): S. pneumoniae (D)

Substance: PF-450 (HRNLIILQRTIFI; Peptide with targeting and/or antimicrobial activity)
- Activities (microorganisms [1]): G B
- Organism, effect (morphology, biofilm and growth disruption) (microorganisms [2]; E. faecalis): E. faecalis (C)
- Organism, effect (morphology, biofilm and growth disruption) (microorganisms [2]; MRSA): MRSA (C)
- Organism, effect (morphology, biofilm and growth disruption) (microorganisms [2]; S. pneumoniae): S. pneumoniae (C)

Substance: PF-469 (YKVNYNNIDNHFNTLRH; Peptide with targeting and/or antimicrobial activity)
- Activities (microorganisms [1]): G B
- Organism, effect (morphology, biofilm and growth disruption) (microorganisms [2]; C. jejuni): C. jejuni (D)
- Organism, effect (morphology, biofilm and growth disruption) (microorganisms [2]; E. coli): E. coli (C)
- Organism, effect (morphology, biofilm and growth disruption) (microorganisms [2]; E. faecalis): E. faecalis (D)
- Organism, effect (morphology, biofilm and growth disruption) (microorganisms [2]; MRSA): MRSA (D)
- Organism, effect (morphology, biofilm and growth disruption) (microorganisms [2]; S. epidermidis): S. epidermidis (D)
- Organism, effect (morphology, biofilm and growth disruption) (microorganisms [2]; S. pneumoniae): S. pneumoniae (D)

Substance: PF-012 (WRGPNTEAGGKSANNIVQVGGAPT; Peptide with targeting and/or antimicrobial activity)
- Activities (microorganisms [1]): G B
- Organism, effect (microorganisms [2]; C. jeikeium): C. jeikeium (A)
- Organism, effect (microorganisms [2]; M. luteus): M. luteus (C)
- Organism, effect (microorganisms [2]; MRSA): MRSA (R)
- Organism, effect (microorganisms [2]; S. epidermidis): S. epidermidis (S)

Substance: PF-454 (MSVFVPVTNIFMFIMSPIFNVNLLHFKVYI; Peptide with targeting and/or antimicrobial activity)
- Activities (microorganisms [1]): G B
- Organism, effect (morphology, biofilm and growth disruption) (microorganisms [2]; E. coli): E. coli (R)
- Organism, effect (morphology, biofilm and growth disruption) (microorganisms [2]; E. faecalis): E. faecalis (C)
- Organism, effect (morphology, biofilm and growth disruption) (microorganisms [2]; MRSA): MRSA (C)
- Organism, effect (morphology, biofilm and growth disruption) (microorganisms [2]; P. aeruginosa): P. aeruginosa (H)
- Organism, effect (morphology, biofilm and growth disruption) (microorganisms [2]; S. epidermidis): S. epidermidis (C)
- Organism, effect (morphology, biofilm and growth disruption) (microorganisms [2]; S. pneumoniae): S. pneumoniae (R)

Substance: PF-068 (SHLINNFGLSVINPSTPICLNFSPVFNLLTVYGITCN; Peptide with targeting and/or antimicrobial activity)
- Activities (microorganisms [1]): G B
- Organism, effect (microorganisms [2]; B. subtilis): B. subtilis (A)
- Organism, effect (microorganisms [2]; C. jeikeium): C. jeikeium (R)
- Organism, effect (microorganisms [2]; C. jejuni): C. jejuni (D)
- Organism, effect (microorganisms [2]; E. coli): E. coli (A)
- Organism, effect (microorganisms [2]; E. faecalis): E. faecalis (A)
- Organism, effect (microorganisms [2]; M. luteus): M. luteus (D)
- Organism, effect (microorganisms [2]; MRSA): MRSA (M)
- Organism, effect (microorganisms [2]; S. epidermidis): S. epidermidis (M)
- Organism, effect (microorganisms [2]; S. pneumoniae): S. pneumoniae (D)

Substance: PF-478 (HLFILKSHLKPFPPFRYTYD; Peptide with targeting and/or antimicrobial activity)
- Activities (microorganisms [1]): G B
- Organism, effect (morphology, biofilm and growth disruption) (microorganisms [2]; E. coli): E. coli (C)
- Organism, effect (morphology, biofilm and growth disruption) (microorganisms [2]; MRSA): MRSA (H)
- Organism, effect (morphology, biofilm and growth disruption) (microorganisms [2]; S. epidermidis): S. epidermidis (C)
- Organism, effect (morphology, biofilm and growth disruption) (microorganisms [2]; S. pneumoniae): S. pneumoniae (C)
